Measurements as given in ChEMBL document CHEMBL1201862, “PubChem BioAssay data set” (2004).
The source made the active and inactive calls.

Columns and labels:
[1] = biological target: Glucose-6-phosphate 1-dehydrogenase (Homo sapiens, UniProt P11413); assay: human G6PD enzyme inhibitors, dose response, selectivity assay for P. falciparum G6PD inhibitor project, biochemical, fluorescence (AID 504792); assay type: functional
[2] = inhibitors of intracellular T. cruzi replication, confirmation, NIH3T3 host cells, beta-gal luminescence (AID 2044); assay type: functional, cell-based;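 note: intracellular parasites grown in NIH/3T3 mouse fibroblasts as host cells; luminescent beta-galactosidase reporter signal from transgenic T. cruzi replicating inside host cells; inhibitors lower the luminescence signal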
[3] = growth suppression of beta-catenin-knockout colon cells, dose response, cell-based, HCT116, human colon tumor (AID 1045); assay type: functional;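 note: HCT116 colon tumor cells with beta catenin knocked out; cells exposed to compound for 60 hours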
[4] = growth suppression of PTEN-null colon cells, dose response, cell-based, HCT116 PTEN knockout (AID 1047); assay type: functional;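 note: HCT116 colon tumor cells with PTEN knocked out; cells exposed to compound for 60 hours before readout; potency for loss of cell viability measured by luminescence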
[5] = inhibitors of firefly luciferase expression or activity, dose response, H4 neuroglioma cells, luminescence (AID 1990); assay type: functional, cell-based
[6] = NIH-3T3 fibroblast cytotoxicity, dose response, cytotoxicity control, cell-based, fluorescence, Alamar Blue, secondary assay (AID 2327); assay type: functional;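 note: NIH-3T3 mouse fibroblasts cultured with fluconazole at 8 µg/mL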
[7] = Luminescence Cell-Based Dose Response HTS to Identify Inhibitors of 5'UTR Stem-Loop Driven Prion Protein mRNA Translation in H4 Neuroglioblastoma Cells. [Related pubchem assays: 1827 (Project Summary), 1813 (Primary HTS)]; assay type: functional
[8] = cells; assay type: functional, cell-based
[9] = C. albicans growth with fluconazole, confirmation, fluorescence, retest (AID 2467); assay type: functional, cell-based
[10] = cytotoxicity toward NIH3T3 fibroblasts, dose response, counter-screen, cell-based, ATP luminescence, mouse fibroblasts (AID 2010); assay type: functional; conditions: NIH3T3;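 note: cells exposed to compound for about 90 hours before reading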
[11] = inhibitors of SNCA 5'UTR-driven reporter translation, confirmation, H4 neuroglioma cells, luminescence (AID 1988); assay type: functional, cell-based
[12] = cells; assay type: functional, cell-based; remark: listed apart in the source
[13] = biological target: Nonstructural protein 1 (Influenza A virus, UniProt Q194T2); assay type: functional, Influenza A virus (A/California/07/2009(H1N1))
Sequence of Nonstructural protein 1 (Q194T2 whole entry): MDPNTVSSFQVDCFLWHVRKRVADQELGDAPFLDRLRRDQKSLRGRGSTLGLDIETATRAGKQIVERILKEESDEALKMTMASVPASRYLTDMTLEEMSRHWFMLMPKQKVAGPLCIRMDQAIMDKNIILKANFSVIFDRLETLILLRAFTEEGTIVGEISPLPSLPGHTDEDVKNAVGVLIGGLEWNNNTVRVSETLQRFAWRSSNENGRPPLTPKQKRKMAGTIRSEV

[14] = biological target: T1, Apoptotic protease-activating factor 1 (Homo sapiens, UniProt O14727); assay type: functional
T1 sequence (O14727 whole entry): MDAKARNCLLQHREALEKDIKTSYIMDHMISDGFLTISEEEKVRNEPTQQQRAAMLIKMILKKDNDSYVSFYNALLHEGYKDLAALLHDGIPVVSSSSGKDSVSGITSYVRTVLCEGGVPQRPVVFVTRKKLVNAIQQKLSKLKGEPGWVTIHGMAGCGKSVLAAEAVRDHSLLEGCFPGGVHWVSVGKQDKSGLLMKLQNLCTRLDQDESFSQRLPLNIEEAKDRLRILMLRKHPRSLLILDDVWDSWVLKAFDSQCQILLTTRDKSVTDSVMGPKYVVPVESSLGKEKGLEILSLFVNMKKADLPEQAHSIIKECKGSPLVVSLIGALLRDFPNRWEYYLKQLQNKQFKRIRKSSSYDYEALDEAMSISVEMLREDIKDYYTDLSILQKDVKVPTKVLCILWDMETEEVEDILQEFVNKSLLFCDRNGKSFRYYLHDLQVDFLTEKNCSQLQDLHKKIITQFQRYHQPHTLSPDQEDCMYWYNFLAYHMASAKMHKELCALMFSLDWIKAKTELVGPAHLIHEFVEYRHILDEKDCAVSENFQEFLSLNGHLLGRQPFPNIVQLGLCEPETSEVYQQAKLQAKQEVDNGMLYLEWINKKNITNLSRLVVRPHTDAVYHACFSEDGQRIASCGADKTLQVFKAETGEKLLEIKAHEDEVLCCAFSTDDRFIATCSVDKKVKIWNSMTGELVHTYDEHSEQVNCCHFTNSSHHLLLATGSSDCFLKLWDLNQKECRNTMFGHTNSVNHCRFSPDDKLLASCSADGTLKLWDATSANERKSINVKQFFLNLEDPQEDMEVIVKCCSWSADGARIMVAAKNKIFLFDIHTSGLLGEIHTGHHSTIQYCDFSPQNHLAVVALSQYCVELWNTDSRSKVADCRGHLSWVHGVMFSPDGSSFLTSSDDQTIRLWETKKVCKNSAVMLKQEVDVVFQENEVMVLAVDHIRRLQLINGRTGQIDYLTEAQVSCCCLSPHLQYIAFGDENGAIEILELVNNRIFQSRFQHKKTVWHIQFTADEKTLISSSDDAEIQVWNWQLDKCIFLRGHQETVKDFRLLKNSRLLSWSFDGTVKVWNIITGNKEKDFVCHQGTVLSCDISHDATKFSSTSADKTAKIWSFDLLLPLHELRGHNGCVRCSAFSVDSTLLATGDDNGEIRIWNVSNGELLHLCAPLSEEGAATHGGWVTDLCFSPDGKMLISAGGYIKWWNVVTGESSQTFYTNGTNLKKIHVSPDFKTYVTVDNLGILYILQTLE

[15] = biological target: Heat shock protein HSP 90-alpha (Homo sapiens, UniProt P07900); assay type: functional, organism-based
[16] = biological target: T2, Corticotropin-releasing factor receptor 2/Corticotropin-releasing factor-binding protein (Homo sapiens, UniProt P24387+Q13324); assay: activators of CRF receptor 2 with binding protein – uHTS hits, confirmation (AID 602473); assay type: functional; conditions: read-out: EC50_Mean
T2 sequence (Q13324 whole entry): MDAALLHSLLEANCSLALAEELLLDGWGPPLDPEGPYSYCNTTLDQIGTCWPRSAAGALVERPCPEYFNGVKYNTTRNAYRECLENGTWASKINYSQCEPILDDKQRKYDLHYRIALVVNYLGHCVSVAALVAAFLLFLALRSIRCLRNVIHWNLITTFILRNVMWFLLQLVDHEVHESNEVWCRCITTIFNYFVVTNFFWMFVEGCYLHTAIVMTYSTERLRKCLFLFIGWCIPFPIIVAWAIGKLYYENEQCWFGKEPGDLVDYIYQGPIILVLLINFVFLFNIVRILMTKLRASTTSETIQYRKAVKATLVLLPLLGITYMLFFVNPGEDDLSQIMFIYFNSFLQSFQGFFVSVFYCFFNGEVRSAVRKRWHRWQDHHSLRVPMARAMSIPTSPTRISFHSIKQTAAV
T2 sequence (P24387 whole entry): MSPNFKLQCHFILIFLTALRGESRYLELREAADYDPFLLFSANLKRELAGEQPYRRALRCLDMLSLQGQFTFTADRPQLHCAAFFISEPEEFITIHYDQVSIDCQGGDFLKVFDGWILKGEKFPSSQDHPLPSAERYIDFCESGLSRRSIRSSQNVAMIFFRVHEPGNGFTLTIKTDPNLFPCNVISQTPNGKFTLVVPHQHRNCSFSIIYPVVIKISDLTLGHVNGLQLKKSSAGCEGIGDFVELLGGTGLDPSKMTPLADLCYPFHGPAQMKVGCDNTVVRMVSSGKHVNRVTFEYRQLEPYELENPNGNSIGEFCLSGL

[17] = biological target: T2, Corticotropin-releasing factor receptor 2/Corticotropin-releasing factor-binding protein; assay: Dose Response confirmation of uHTS hits for small molecule antagonists of the CRF-binding protein and CRF-R2 receptor complex.; assay type: functional; conditions: read-out: IC50_Mean
[18] = biological target: T3, Carboxy-terminal domain RNA polymerase II polypeptide A small phosphatase 1 (Homo sapiens, UniProt Q9GZU7); assay: inhibitors of CTDSP1, concentration-response testing, biochemical assay, absorbance-based, actives from ultra-high-throughput screening (AID 540297); assay type: functional
T3 sequence (Q9GZU7 whole entry): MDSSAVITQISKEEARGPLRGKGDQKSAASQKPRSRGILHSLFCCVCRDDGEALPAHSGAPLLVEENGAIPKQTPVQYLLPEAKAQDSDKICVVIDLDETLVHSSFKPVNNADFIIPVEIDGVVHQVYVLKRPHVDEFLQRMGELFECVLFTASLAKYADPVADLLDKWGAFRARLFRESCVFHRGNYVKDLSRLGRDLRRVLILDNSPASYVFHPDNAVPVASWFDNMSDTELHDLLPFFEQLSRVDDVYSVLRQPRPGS

[19] = cells; assay type: functional
[20] = microbe, parasite or virus in culture; assay type: functional; conditions: Mycobacterium tuberculosis
[21] = THP-1 cell cytotoxicity, dose response, cytotoxicity control for non-replicating M. tuberculosis project (AID 489025); assay type: functional
[22] = tested on: INS1; assay: beta cell apoptosis inhibitors, cytokine rescue, dose response, luminescence, retest (AID 449756); assay type: functional, cell-based; conditions: Rattus norvegicus;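 note: cell death triggered by IL-1 beta plus TNF-alpha plus IFN-gamma mixture; protective hits raise ATP signal compared with cytokine alone wells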
[23] = HepG2 cell cytotoxicity, dose response, cytotoxicity control for non-replicating M. tuberculosis project (AID 489018); assay type: functional; conditions: Mycobacterium tuberculosis
[24] = Vero E6 cell cytotoxicity, dose response, cytotoxicity control for non-replicating M. tuberculosis project, secondary assay (AID 492998); assay type: functional, VeroE6; conditions: Vero C1008

Sequence of Glucose-6-phosphate 1-dehydrogenase (P11413 whole entry): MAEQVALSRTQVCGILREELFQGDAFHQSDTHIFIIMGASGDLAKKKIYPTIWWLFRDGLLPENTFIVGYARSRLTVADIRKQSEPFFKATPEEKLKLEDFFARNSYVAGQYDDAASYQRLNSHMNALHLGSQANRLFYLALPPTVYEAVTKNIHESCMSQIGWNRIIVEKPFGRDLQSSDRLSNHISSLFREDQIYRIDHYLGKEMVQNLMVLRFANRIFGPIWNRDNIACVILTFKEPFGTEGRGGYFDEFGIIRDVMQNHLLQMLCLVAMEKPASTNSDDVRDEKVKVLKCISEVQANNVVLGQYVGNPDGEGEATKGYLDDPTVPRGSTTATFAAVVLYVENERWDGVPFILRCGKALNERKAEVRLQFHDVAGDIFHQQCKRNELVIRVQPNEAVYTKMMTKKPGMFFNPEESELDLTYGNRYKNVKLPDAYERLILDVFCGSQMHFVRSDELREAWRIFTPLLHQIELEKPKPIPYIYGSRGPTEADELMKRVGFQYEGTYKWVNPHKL

## Cc1cccc(OCC(=O)NCC(=O)N/N=C/c2ccccc2)c1
[1]
  IC50: > 80 µM (inactive)

## CN1CCN(Cc2cc(COCc3ccccc3)c3cccnc3c2O)CC1
[2]
  EC50: 1.37 µM (active)
[3]
  EC50: 3.23 µM (active)
[4]
  EC50: 3.11 µM (active)
[5]
  EC50: 7.01 µM (active)
[6]
  EC50: > 150 µM (inconclusive)
[7]
  EC50: 8.1 µM (active)
[8]
  EC50: > 350 µM (not active)
[9]
  EC50: 0.8 µM (active)
[10]
  EC50: 7.62 µM (active)
[11]
  EC50: 5.83 µM (active)
[12]
  EC50: 7.14 µM (active)
[13]
  IC50: 3.98 µM (active)

## CCOc1ccccc1N1CCN(C(=O)C2c3ccccc3Oc3ccccc32)CC1
[14]
  IC50: 29.3 µM (active)

## Cc1cccc(C)c1NC(=O)C(Cl)C(=O)c1ccccc1 (stereo not given)
[15]
  AC50: 0.855 µM (active)

## CN1C(=O)C(N=Nc2ccc([N+](=O)[O-])cc2)SC1=S (stereo not given)
[16]
  EC50: 1.69 µM (active)
[17]
  IC50: < 0.368 µM (active)
[1]
  IC50: > 80 µM (inactive)
[15]
  AC50: 14.5 µM (active)

## O=C(NNC(=O)c1ccc2ccccc2c1)c1ccc(Cl)c(Cl)c1
[18]
  IC50: > 80 µM (inactive)

## O=C(Cn1cnc2scc(-c3cccc([N+](=O)[O-])c3)c2c1=O)NCc1ccco1
[18]
  IC50: 3.15 µM (active)

## O=C(CSc1ccccn1)Nc1ccc2c(c1)C(=O)c1ccccc1C2=O
[18]
  IC50: 3.08 µM (active)

## CC(=O)Oc1c(C)cc(Cl)cc1C(=O)Nc1ccc([N+](=O)[O-])cc1Cl
[19]
  IC50: 9.46 µM (active)
[3]
  EC50: 2.16 µM (active)
[4]
  EC50: 1.99 µM (active)
[20]
  CC50: 1.54 µM (active)
[21]
  CC50: 5.03 µM (active)
[22]
  AC50: 1.37 µM (active)
[23]
  CC50: 7.96 µM (active)
[24]
  CC50: 3.96 µM (active)
